# According to publication PMC12560828, “Chemical structure drives developmental toxicity of alkyl-substituted naphthalenes in zebrafish” (Environment international, 2025):
# Columns and labels:
# [1] = system: early life stage zebrafish (Danio rerio) embryos; experiment: Developmental toxicity morphology screen, sealed rotating vial exposure; type: in vivo; set-up: bmd, MO24 / bmd, MORT / bmd, ANY_ / bmd, AXIS / bmd, CRAN / bmd, EDEM / bmd, LTRK / bmd, MUSC / bmdL, ANY_ / bmdU, ANY_ / bmdL, AXIS / bmdU, AXIS / bmdL, CRAN / bmdU, CRAN / bmdL, EDEM / bmdU, EDEM / bmdL, LTRK / bmdU, LTRK / bmdL, MO24 / bmdU, MO24 / bmdL, MORT / bmdU, MORT: unit not given here; details: for estimated percent Any effect: at 20 μM, 120 hpf, estimated from fitted concentration-response curves; for BMC50 Any effect: Fig. 2 heatmap, exposure 6-24 hpf in vials, summary of all endpoints; for any effect BMD50: SI-T5
# How it was run: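 Bleached 6 hpf embryos, eight per sealed glass vial in 2 mL EM, were dosed from a 200x DMSO stock and rotated end-over-end overnight at 28 °C, then moved to chemical-free EM at 24 hpf (32 embryos per treatment). Blinded binary scoring at 120 hpf was pooled as "Any effect". BMC50 is on nominal concentrations.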
# [2] = system: zebrafish embryos, gene expression at 48 hpf; experiment: Targeted transcriptomics (TempO-Seq S1500+ zebrafish panel), differential expression; type: in vivo, Danio rerio; details: 20 μM
# Procedure: Targeted transcriptomics were performed using the Biospyder™ TempO-Seq™ 96-well plate platform. This platform used detector oligos for a gene set of 3112 probes selected through data driven approaches and expert curation ([Balik-Meisner et al., 2019]). The targeted transcriptomics approach was selected to maximize the number of chemicals that could be included in the analysis while managing cost and data analysis requirements. Targeted transcriptomics were limited to 96 samples, three chemicals without morphological effects were excluded from the analysis to ensure n = 4 per chemical and n = 6 controls, excluded chemicals are indicated in SI-T3.
# A single exposure concentration of 20 μM was chosen as the maximum possible concentration to elicit a biological response that also ensured enough viable animals for RNA collection for every chemical. The same concentration per chemical was chosen as opposed to a phenotypically anchored concentration due to variability in 48 hpf survival across chemicals at the same 120 hpf percent effect and to allow for a direct comparison of chemical potency and transcriptomic response. 48 hpf was chosen to ensure the measurement of transcriptomic responses prior to the emergence of observable phenotypic effects. This timepoint has been used extensively and enhanced the ability to compare our results across datasets. Exposure was conducted over two days, chemicals were split into day groups by numerical order of randomly generated internal labels, 11 chemicals and control each day, n = 48 embryos across six vials per treatment. Exposure was conducted as previously described in section 2.3. At 48 hpf embryos were collected for RNA extraction. Embryos from two exposure vials were kept for morphological effect assessments which were as expected based on screening results. From the remaining wells, six phenotypically normal embryos were collected and pooled in their vial groups into 1.5 mL Eppendorf tubes, placed on ice (~30 sec), excess medium was removed, placed back on ice (~30 sec), and 200 μL RNA shield was added. […] of n = 6 pooled embryos were collected from each treatment.
# RNA was extracted from exposure groups on day one and day two. 100 μL of lysis buffer was added to each tube containing pooled embryo samples and 200 μL of RNA shield, the full contents of the tube were then transferred to the homogenization plate (2 mL deep 96-well plate pre-filled with 400 μL 1 mm zirconium beads and 500 μL of lysis buffer). The plate was homogenized for 1.5 min using the Mini-BeadBeater 96 (BioSpec Products, Bartlesville, OK, United States) and centrifuged for five min at 3000 rcf. 550 μL of the supernatant was distributed over two plates, each pre-filled with 275 μL of ethanol. RNA extraction was performed using the KingFisher Apex System (ThermoFisher Scientific, Waltham, MA, United States) and Quick-RNA Magbead kit (Zymo Research Corporation, Irvine, CA, Untied States). Briefly, this automated process uses Mag beads to collect RNA from the sample, after a series of washes and treatment with DNase the RNA is eluted in 50 μL of ultra-pure water. RNA quality was assessed using the 4150 TapeStation System (Agilent, Santa Clara, CA, United States). All samples used had RNA integrity number (RIN) scores >9.8. RNA concentration was determined using Quant-iT RNA Reagent and assay kit and Varioskan ALF multi-mode plate reader (ThermoFisher Scientific, Waltham, MA, United States) in duplicate, samples with high variability (coefficient of variance (CV) > 10) between reads were repeated in triplicate. The average of the quantification reads was used for RNA concentration normalization. […] All 94 samples were normalized using ultra-pure water to the lowest concentration sample − 14.9 ng/μL. […]
# [3] = benchmark dose, morphology endpoint ANY_ (any effect)
# [4] = benchmark dose, morphology endpoint AXIS
# [5] = benchmark dose, morphology endpoint CRAN
smiles,measurement,setting,value
"Cc1ccc2ccc(C)cc2c1 [2,7-dimethylnaphthalene]",estimated percent Any effect,[1],12%
same,nt5dc2 expression,[2]; result in words,decreased expression
"Cc1cc(C)c2c(C)cccc2c1 [2,4,5-trimethylnaphthalene]",BMC50 AXIS (curved or bent body axis at 120 hpf),"[1]; Fig. 2, nominal concentration",24.2 µM
same,BMC50 CRAN (craniofacial malformation at 120 hpf),"[1]; Fig. 2, nominal concentration",24.8 µM
same,BMC50 MO24 (mortality at 24 hpf),"[1]; Fig. 2, nominal concentration",25.7 µM
same,BMC50 MORT (mortality at 120 hpf),"[1]; Fig. 2, nominal concentration",24.2 µM
same,BMC50 Any effect,[1]; nominal concentration,22 µM
same,any effect BMD50,[1],22.04 µM
same,"bmd, MO24","[1]; benchmark dose, endpoint MO24",25.7458
same,"bmd, MORT","[1]; benchmark dose, endpoint MORT",24.2071
same,"bmd, ANY_",[1]; [3],22.0373
same,"bmd, AXIS",[1]; [4],24.1954
same,"bmd, CRAN",[1]; [5],24.8219
CCc1ccc2ccccc2c1 [2-ethylnaphthalene],BMC50 AXIS (curved or bent body axis at 120 hpf),"[1]; Fig. 2, nominal concentration",44.9 µM
same,BMC50 CRAN (craniofacial malformation at 120 hpf),"[1]; Fig. 2, nominal concentration",45.7 µM
same,BMC50 EDEM (pericardial and/or yolk sac edema at 120 hpf),"[1]; Fig. 2, nominal concentration",42.3 µM
same,BMC50 LTRK (lower trunk and/or caudal fin at 120 hpf),"[1]; Fig. 2, nominal concentration",49.8 µM
same,BMC50 MO24 (mortality at 24 hpf),"[1]; Fig. 2, nominal concentration",47.1 µM
same,BMC50 MORT (mortality at 120 hpf),"[1]; Fig. 2, nominal concentration",44.6 µM
same,BMC50 Any effect,[1]; nominal concentration,35.2 µM
same,any effect BMD50,[1],35.16 µM
same,"bmd, MO24","[1]; endpoint MO24, benchmark dose",47.121
same,"bmdL, MO24","[1]; endpoint MO24, lower limit of benchmark dose",45.5775
same,"bmdU, MO24","[1]; endpoint MO24, upper limit of benchmark dose",48.8332
same,"bmd, MORT","[1]; endpoint MORT, benchmark dose",44.5979
same,"bmdL, MORT","[1]; endpoint MORT, lower limit of benchmark dose",42.8494
same,"bmdU, MORT","[1]; endpoint MORT, upper limit of benchmark dose",46.3328
same,"bmd, ANY_","[1]; morphology endpoint ANY_, benchmark dose",35.1578
same,"bmdL, ANY_","[1]; morphology endpoint ANY_, lower limit of benchmark dose",33.394
same,"bmdU, ANY_","[1]; morphology endpoint ANY_, upper limit of benchmark dose",36.9258
same,"bmd, AXIS","[1]; morphology endpoint AXIS, benchmark dose",44.9036
same,"bmdL, AXIS","[1]; morphology endpoint AXIS, lower limit of benchmark dose",41.901
same,"bmdU, AXIS","[1]; morphology endpoint AXIS, upper limit of benchmark dose",49.465
same,"bmd, CRAN","[1]; morphology endpoint CRAN, benchmark dose",45.7058
same,"bmdL, CRAN","[1]; morphology endpoint CRAN, lower limit of benchmark dose",42.7078
same,"bmdU, CRAN","[1]; morphology endpoint CRAN, upper limit of benchmark dose",50.351
same,"bmd, EDEM","[1]; morphology endpoint EDEM, benchmark dose",42.2958
same,"bmdL, EDEM","[1]; morphology endpoint EDEM, lower limit of benchmark dose",39.552
same,"bmdU, EDEM","[1]; morphology endpoint EDEM, upper limit of benchmark dose",46.0615
same,"bmd, LTRK","[1]; morphology endpoint LTRK, benchmark dose",49.8262
same,"bmdL, LTRK","[1]; morphology endpoint LTRK, lower limit of benchmark dose",46.6984
same,"bmdU, LTRK","[1]; morphology endpoint LTRK, upper limit of benchmark dose",55.8128
same,nt5dc2 expression,[2]; result in words,decreased expression
"Cc1ccc2cccc(C)c2c1 [1,7-dimethylnaphthalene]",BMC50 AXIS (curved or bent body axis at 120 hpf),"[1]; Fig. 2, nominal concentration",23.9 µM
same,BMC50 LTRK (lower trunk and/or caudal fin at 120 hpf),"[1]; Fig. 2, nominal concentration",30 µM
same,BMC50 MORT (mortality at 120 hpf),"[1]; Fig. 2, nominal concentration",not associated with mortality
same,BMC50 MUSC (muscular/cardiovascular at 120 hpf),"[1]; Fig. 2, nominal concentration",45.7 µM
same,BMC50 Any effect,[1]; nominal concentration,20.1 µM
same,any effect BMD50,[1],20.09 µM
same,estimated percent Any effect,[1],52%
same,"bmd, ANY_",[1]; [3],20.0865
same,"bmd, AXIS",[1]; [4],23.9279
same,"bmd, LTRK","[1]; benchmark dose, morphology endpoint LTRK",29.9891
same,"bmd, MUSC","[1]; benchmark dose, morphology endpoint MUSC",45.7133
same,number of differentially expressed genes (DEGs),"[2]; p-value ≤ 0.05 and log2FC ≥ |1|, result in words",substantially more DEGs than the rest of the chemicals tested
same,nt5dc2 expression,[2]; result in words,decreased expression
same,logFC CCN1,[2]; vs global control (SI-T13),-1.157
same,logFC FGFBP2B,[2]; vs global control (SI-T13),-1.676
same,logFC MFAP2,[2]; vs global control (SI-T13),-0.751
same,logFC PDE6GB,[2]; vs global control (SI-T13),-0.7875
same,logFC PLOD1A,[2]; vs global control (SI-T13),-3.2359
"Cc1cccc2c(C)cccc12 [1,5-dimethylnaphthalene]",BMC50 AXIS (curved or bent body axis at 120 hpf),"[1]; Fig. 2, nominal concentration",47.6 µM
same,BMC50 CRAN (craniofacial malformation at 120 hpf),"[1]; Fig. 2, nominal concentration",48.3 µM
same,BMC50 EDEM (pericardial and/or yolk sac edema at 120 hpf),"[1]; Fig. 2, nominal concentration",47.8 µM
same,BMC50 MO24 (mortality at 24 hpf),"[1]; Fig. 2, nominal concentration",no MO24 BMC50
same,BMC50 Any effect,[1]; nominal concentration,36.9 µM
same,any effect BMD50,[1],36.95 µM
same,estimated percent Any effect,[1],13%
same,"bmd, ANY_",[1]; [3],36.9476
same,"bmd, AXIS",[1]; [4],47.5678
same,"bmd, CRAN",[1]; [5],48.2521
same,"bmd, EDEM","[1]; benchmark dose, morphology endpoint EDEM",47.802
